Tests used:
Interstitial collagenase = target: T1, Interstitial collagenase (Homo sapiens, UniProt P03956); assay: 50 percent inhibition of human Matrix metalloprotease-1 by the cleavage of fluorogenic peptide MCA-Pro-Leu-Gly-Leu-Dpa-ala-Arg-NH2
T1 sequence (P03956 whole entry): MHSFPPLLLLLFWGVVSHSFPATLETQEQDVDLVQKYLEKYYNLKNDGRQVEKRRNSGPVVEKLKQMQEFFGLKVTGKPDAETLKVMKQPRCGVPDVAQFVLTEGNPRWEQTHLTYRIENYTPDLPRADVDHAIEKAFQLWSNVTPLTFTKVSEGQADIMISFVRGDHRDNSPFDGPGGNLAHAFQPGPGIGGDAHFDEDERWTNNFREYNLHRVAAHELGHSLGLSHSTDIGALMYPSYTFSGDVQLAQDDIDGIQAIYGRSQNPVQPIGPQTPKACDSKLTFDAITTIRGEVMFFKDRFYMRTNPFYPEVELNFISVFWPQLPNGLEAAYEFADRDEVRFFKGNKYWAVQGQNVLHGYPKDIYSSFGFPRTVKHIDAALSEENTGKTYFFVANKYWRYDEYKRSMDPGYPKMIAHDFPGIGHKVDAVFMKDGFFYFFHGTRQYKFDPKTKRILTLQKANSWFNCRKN

[1] = target: 72 kDa type IV collagenase (Homo sapiens, UniProt P08253)
Sequence of 72 kDa type IV collagenase (P08253 whole entry): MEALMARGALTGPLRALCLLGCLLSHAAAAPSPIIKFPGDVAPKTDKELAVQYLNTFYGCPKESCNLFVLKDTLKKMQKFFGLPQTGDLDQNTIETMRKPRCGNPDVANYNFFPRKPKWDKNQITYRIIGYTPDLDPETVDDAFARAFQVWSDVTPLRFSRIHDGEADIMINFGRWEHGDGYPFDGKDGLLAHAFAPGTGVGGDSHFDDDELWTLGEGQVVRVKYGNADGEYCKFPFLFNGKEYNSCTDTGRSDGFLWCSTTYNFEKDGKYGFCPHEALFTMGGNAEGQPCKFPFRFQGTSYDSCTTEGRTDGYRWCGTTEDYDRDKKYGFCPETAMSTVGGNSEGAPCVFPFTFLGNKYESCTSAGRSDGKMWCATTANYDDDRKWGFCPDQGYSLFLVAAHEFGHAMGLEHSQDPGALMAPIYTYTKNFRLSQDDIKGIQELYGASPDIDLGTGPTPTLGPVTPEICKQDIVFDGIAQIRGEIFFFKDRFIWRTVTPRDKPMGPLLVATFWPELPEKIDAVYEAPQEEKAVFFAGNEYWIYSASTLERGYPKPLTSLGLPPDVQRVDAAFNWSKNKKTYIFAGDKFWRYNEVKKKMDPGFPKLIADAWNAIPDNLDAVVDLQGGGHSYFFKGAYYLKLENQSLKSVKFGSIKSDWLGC

Collagenase 3 = Collagenase 3 (Homo sapiens, UniProt P45452)

SMILES | IC50 (Interstitial collagenase) [nM] | IC50 [1] [nM] | IC50 (Collagenase 3) [nM]
O=C(NO)C1(CS(=O)(=O)c2ccc(Oc3ccc(Cl)cc3)cc2)CCOCC1 [CTS-1027] | 800 |  | 
O=C(NO)c1ccccc1S(=O)(=O)N1CCC(Oc2ccc(C(F)(F)F)cc2)CC1 |  |  | 28
COc1ccc(C(=O)NC2CCN(S(=O)(=O)c3ccccc3C(=O)NO)C2)cc1 (single isomer, unassigned; (-)) | > 10000 |  | 
O=C(NO)c1ccccc1S(=O)(=O)N1CCC(Oc2ccc(C(F)(F)F)cc2)C1 (stereo not drawn) | > 10000 |  | 

The remaining lines, values ahead:

IC50 (Interstitial collagenase) [nM] | IC50 [1] [nM] | IC50 (Collagenase 3) [nM] | SMILES
 | 3.3 |  | O=C(NO)c1c(F)cccc1S(=O)(=O)N1CCC(Oc2ccc(C(F)(F)F)cc2)CC1
 | 70 | 520 | O=C(NO)c1ccccc1S(=O)(=O)N1CCC(c2ccccc2)CC1
 | 2 |  | O=C(NO)c1ccccc1S(=O)(=O)N1CCC(Oc2ccc(OC(F)(F)F)cc2)CC1
